Reference: publication doi:10.1101/2020.07.29.226878v1 (bioRxiv, 2020)

Experiments:
[1] = system: Acheta domesticus; details: tested in Acheta domesticus; cited from earlier work
[2] = system: sheep blowflies (Lucilia cuprina); assay: In vivo insecticidal assay, intrathoracic injection into sheep blowflies

| Substance | LD50 at 24 h [1] | LD50 in blow fly assays (abstract) [2] |
| --- | --- | --- |
| ponericin G1 | 25.7 nmol/g |  |
| Δ-pseudomyrmecitoxin-Pp1a [Δ-PSDTX-Pp1a] |  | 3 nM |
